One data set has as its system mice. The experiment in a line: 55° C. tail-flick antinociception test in mice. Particulars: for A50: at time of peak drug effect; for naloxone sensitivity: naloxone 10 mg/kg ip, -10 min, yes = greater than 80% reduction in the antinociceptive effect. Here is the method:
Analgesic Testing and Assessment of Tolerance Development. The analgesic activity of selected ligands is tested in mice using the 55° C. tail-flick test as previously described. (See Wells et al., supra.) The test compounds are administered by the intracerbroventricular (icv) route. […] To determine whether the analgesic activity of the tested compounds is mediated through opioid receptors, the blockade of antinociceptive activity by pretreatment with naloxone is carried out. The analgesic activity was considered as naloxone sensitive if greater than 80% reduction in the antinociceptive response is observed.
Antinociceptive Studies. Male ICR mice (Harlan) are used for all evaluations. Mice are housed in a temperature and humidity controlled vivarium on a 12:12 h light:dark cycle with unlimited access to food and water prior to the formal procedures. […] The dihydrochloride salt of 7h is dissolved in water and injected in a volume of 5 μL. All other compounds are dissolved in 100% DMSO and injected in a volume of 5 μL. Antinociceptive assays are performed at various times after injection.
Percent antinociception is calculated using the formula: % MPE (maximal possible effect)=100×(test−control)/(cutoff−control) where control is the predrug observation, test is the postdrug observation, and cutoff is the maximal length of stimulus allowed (10 s for 55° C. tail-flick). Antinociceptive A50 values and 95% confidence intervals are determined using linear regression software (FlashCalc). Opioid activity of the test compounds are assessed by pretreating animals with naloxone (10 mg/kg ip, −10 min) followed by an icv injection of an approximate A90 dose of test compound. […] Antinociception is assessed in the 55° C. tail-flick test at 10, 20 and 30 min. A positive response to a fixed dose of naloxone is indicated when greater than 80% reduction in the antinociceptive effect of the agonist is observed.

The next data set addresses opioid κ receptor (Cavia porcellus, UniProt P41144). To be noted: for selectivity ratio κ/δ: ratio of binding Ki values; for Ki: read-out: Ki (nM) ± SEM κ, displacement of [3H]U69,593 (1.2-[…]), guinea pig brain membranes.
The target of the next data set is T1, opioid δ receptor (Rattus norvegicus, UniProt P33533).
T1 construct: Rat membranes are prepared each day using a partially thawed frozen rat brain; from tissue; host or cells: rat brain membranes
T1 sequence (P33533 whole entry): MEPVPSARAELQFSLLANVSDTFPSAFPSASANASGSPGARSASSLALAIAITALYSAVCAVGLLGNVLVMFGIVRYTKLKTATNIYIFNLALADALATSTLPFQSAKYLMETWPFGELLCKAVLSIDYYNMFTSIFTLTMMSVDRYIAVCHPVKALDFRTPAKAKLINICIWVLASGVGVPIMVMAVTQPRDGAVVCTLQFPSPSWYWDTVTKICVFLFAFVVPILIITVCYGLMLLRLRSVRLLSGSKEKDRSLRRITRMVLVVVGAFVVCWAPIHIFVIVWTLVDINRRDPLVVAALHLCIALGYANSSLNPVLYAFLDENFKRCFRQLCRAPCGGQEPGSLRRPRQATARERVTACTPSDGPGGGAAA
As to the kind of experiment: Opioid δ receptor binding, [3H]DADLE displacement in rat brain membranes. To be noted: for Ki: displacement of [3H]DADLE (1.3-2.0 nM), rat brain membranes, 100 nM DAMGO to block μ sites, read-out: Ki (nM) ± SEM δ. (In a radioligand displacement assay an active substance lowers the binding of a labelled ligand.)

In a further data set the target is δ receptor (Cavia porcellus, UniProt A0A286XTF2). As to the kind of experiment: biochemical. Also noted: Emax: dose or concentration left out as unconfirmed.
Sequence of δ receptor (A0A286XTF2 1-366): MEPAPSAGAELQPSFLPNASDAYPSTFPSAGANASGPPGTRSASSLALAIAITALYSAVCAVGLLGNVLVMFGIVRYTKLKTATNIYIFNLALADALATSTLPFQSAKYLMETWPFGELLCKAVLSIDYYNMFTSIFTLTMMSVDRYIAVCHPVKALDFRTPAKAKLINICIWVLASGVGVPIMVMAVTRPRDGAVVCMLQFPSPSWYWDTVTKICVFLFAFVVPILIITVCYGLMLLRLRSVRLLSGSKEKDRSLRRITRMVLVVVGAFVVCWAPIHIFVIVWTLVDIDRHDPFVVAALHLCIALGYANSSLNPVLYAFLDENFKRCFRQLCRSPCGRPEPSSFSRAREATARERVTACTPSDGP
Data set [1] has as its target T2, μ receptor (Cavia porcellus, UniProt A0ACM8Q262). Particulars: for Ki: read-out: antagonist activity apparent Ki (nM ± SD) μ, inhibition of DAMGO (10 μM) stimulated [35S]GTP-γ-S binding; for EC50: read-out: agonist activity EC50 (nM ± SD) μ, δ and κ sites blocked with TIPP (1 μM) and nor-BNI (6 nM). For orientation: GTPγS resists hydrolysis and so accumulates on activated G proteins.

A further data set deals with opioid μ receptor (Rattus norvegicus, UniProt P33535). Particulars: for selectivity ratio μ/δ: ratio of binding Ki values; for Ki: read-out: Ki (nM) ± SEM μ, displacement of [3H]DAMGO (1.4-3.0 nM), rat brain membranes.
Sequence of opioid μ receptor (P33535 whole entry): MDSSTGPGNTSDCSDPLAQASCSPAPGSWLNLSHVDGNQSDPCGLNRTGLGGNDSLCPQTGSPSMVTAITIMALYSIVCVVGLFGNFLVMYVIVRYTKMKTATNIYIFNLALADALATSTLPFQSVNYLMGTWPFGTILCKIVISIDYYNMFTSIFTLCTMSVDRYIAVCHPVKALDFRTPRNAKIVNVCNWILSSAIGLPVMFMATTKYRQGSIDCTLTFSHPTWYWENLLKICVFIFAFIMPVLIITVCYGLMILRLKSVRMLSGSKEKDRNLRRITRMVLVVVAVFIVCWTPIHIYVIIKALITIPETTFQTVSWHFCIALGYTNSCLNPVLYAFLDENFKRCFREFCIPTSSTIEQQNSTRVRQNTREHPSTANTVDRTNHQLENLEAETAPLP
Data set [2] addresses T2, μ receptor. As to the kind of experiment: biochemical. To be noted: read-out: agonist activity Emax % μ. Also noted: dose or concentration left out as unconfirmed.
The target of data set [3] is T3, δ receptor (mouse vas deferens) (Mus musculus, UniProt P32300). The experiment in a line: Mouse vas deferens (MVD) smooth muscle bioassay. Particulars: for IC50: inhibition of electrically stimulated contractions, read-out: agonist activity MVD (δ) IC50. On the procedure: (§1) Bioassays in Smooth Muscle Preparations. The functional activity profiles of selected ligands are also determined in the mouse vas deferens (MVD) and guinea pig ileum (GPI) smooth muscle preparations as described previously.
T3 sequence (P32300 whole entry): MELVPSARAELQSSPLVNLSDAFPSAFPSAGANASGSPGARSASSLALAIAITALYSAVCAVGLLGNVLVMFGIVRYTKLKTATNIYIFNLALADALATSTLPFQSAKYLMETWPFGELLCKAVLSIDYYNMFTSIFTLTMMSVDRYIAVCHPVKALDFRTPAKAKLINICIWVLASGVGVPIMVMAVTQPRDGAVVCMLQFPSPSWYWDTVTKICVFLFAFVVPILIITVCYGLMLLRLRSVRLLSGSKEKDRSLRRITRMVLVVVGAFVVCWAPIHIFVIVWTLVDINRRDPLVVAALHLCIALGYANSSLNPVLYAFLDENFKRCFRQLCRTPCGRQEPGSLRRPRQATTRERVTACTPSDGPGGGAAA
(§2) The agonist activity is determined by the ability of the compound to inhibit electrically stimulated contractions of the GPI and MVD. The GPI is primarily a μ receptor preparation, even though the ileum does also contain κ receptors. In the MVD, the opioid effects are predominantly mediated through δ receptors, but μ and κ receptors also exist in this tissue.
(§3) Tissues came from male ICR mice weighing 25-40 g and male Hartley guinea pigs weighing 250-500 g. The tissues are tied to gold chain with suture silk, suspended in 20 mL baths containing 37° C. oxygenated (95% O2, 5% CO2) Krebs bicarbonate solution (magnesium free for the MVD), and allowed to equilibrate for 15 min. The tissues are then stretched to optimal length previously determined to be 1 g tension (0.5 g for MVD) and allowed to equilibrate for 15 min. The tissues are stimulated transmurally between platinum wire electrodes at 0.1 Hz, 0.4 ms pulses (2-ms pulses for MVD), and supramaximal voltage. […] Tissues not producing typical results are not used. Experimental compounds were added to the baths in 14-60 μL volumes. Succeeding doses of agonist are added cumulatively to the bath at 3 min intervals to produce a concentration-response curve. The tissues are then washed extensively with fresh buffer until the original contraction height is reestablished. […] The tissues are then washed with fresh buffer for 30 min, and the agonist dose-response curve was repeated. Rightward shifts in the dose-response curves are calculated by dividing the antagonized dose-response curve IC50 value by the unantagonized IC50 value. IC50 values represent the mean of two to four tissues. IC50 estimates and their associated standard errors are determined by using a computerized nonlinear least-squares method. (MINSQ Least Squares Parameter Estimation, version 3.05; MicroMath Inc., 1999.)

The next data set deals with κ receptor (Cavia porcellus, UniProt P41144). Particulars: read-out: antagonist activity apparent Ki (nM ± SD) κ.
Sequence of κ receptor (P41144 whole entry): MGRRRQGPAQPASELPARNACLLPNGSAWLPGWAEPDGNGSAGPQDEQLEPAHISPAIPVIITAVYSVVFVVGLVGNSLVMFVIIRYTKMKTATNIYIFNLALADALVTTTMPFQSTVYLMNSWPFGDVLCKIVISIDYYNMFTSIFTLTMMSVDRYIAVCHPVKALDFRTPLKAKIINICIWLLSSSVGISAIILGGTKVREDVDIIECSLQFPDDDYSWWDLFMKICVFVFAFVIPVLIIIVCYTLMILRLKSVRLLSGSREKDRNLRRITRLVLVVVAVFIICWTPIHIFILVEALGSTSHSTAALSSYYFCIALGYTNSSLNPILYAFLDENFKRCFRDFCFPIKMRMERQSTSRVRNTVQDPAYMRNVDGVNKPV
The target of data set [4] is T3, δ receptor (mouse vas deferens). As to the kind of experiment: Mouse vas deferens (MVD) smooth muscle bioassay. More on the design: from tissue; host or cells: mouse vas deferens (male ICR mice). Here is the method:
as §1, §2, §3

Counter-ions that a name gives are not always drawn. Where only a bound is given, the exact number is not on record here.

Sequence of opioid κ receptor (P41144 whole entry): as above
T2 sequence (A0ACM8Q262 1-400): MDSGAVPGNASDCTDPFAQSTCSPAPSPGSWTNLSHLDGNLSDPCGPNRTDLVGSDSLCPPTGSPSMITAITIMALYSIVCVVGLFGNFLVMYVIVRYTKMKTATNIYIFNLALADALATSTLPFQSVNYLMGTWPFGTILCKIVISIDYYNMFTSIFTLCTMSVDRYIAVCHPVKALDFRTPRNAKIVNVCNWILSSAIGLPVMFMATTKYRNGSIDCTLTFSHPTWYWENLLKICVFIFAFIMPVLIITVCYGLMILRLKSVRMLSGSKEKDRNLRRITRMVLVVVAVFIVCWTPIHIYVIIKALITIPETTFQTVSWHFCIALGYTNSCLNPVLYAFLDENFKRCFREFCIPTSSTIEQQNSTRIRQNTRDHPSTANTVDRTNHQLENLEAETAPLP

For `CN1CC[C@]23c4c5ccc(O)c4O[C@H]2c2ncc(-c4ccc(Cl)cc4)cc2C[C@H]3[C@H]1C5` (as salt: salt) [7h, 5′-(4-Chlorophenyl)-6,7-didehydro-4,5α-epoxy-3-hydroxy-17-methylpyrido[2′,3′:6,7]morphinan], the melting point (usually the temperature of the solid-liquid transition) was 276 to 278 °C (dec.).
In the data set on mice (icv, mouse tail-flick), `CN1CC[C@]23c4c5ccc(O)c4O[C@H]2[C@@H](O)C=C[C@H]3[C@H]1C5` [Morphine, reference compound] yielded an A50 of 4.2 nmol. Moreover, in the data set with mice, the naloxone sensitivity entry is “yes”.
Take `CN1CC[C@]23c4c5ccc(O)c4O[C@H]2c2ncc(-c4ccccc4)cc2C[C@H]3[C@H]1C5` [7g, 6,7-Didehydro-4,5α-epoxy-3-hydroxy-17-methyl-5′-phenylpyrido[2′,3′:6,7]morphinan]: the “selectivity ratio κ/δ” value on opioid κ receptor was determined as 43. In addition, the Ki on opioid κ receptor was 81 ± 5 nM; on opioid δ receptor it was 1.9 ± 0.09 nM; on δ receptor it was greater than 1000 nM; at μ receptor [1], greater than 1000 nM; at opioid μ receptor it was 24 ± 2 nM. In addition, the “% nociception @ 100 nmol” value in the data set with mice (icv, mouse tail-flick) stood at 48% @ 100 nmol. Also, in the data set with mice (icv, mice), the “toxicity preventing A50 determination” value is listed as “toxicity”. Also, the naloxone sensitivity result in the data set with mice is “yes”. Further, the “selectivity ratio μ/δ” value on opioid μ receptor is on record as 13. Further, at μ receptor [2], the Emax (commonly the greatest response seen or fitted, relative to the assay's reference) was 60%. The concentration for half-maximal inhibition (IC50) (as a rule, the concentration at which inhibition is half-maximal) in data set [3] stood at 48.4 ± 8.65 nM.
In turn, `C=CCN1CC[C@]23c4c5ccc(O)c4O[C@H]2c2ncc(-c4ccc(Cl)cc4)cc2C[C@@]3(O)[C@H]1C5` [7a, 17-(Allyl)-6,7-didehydro-3,14-dihydroxy-4,5α-epoxy-5′-(4-chlorophenyl)pyrido[2′,3′:6,7]morphinan] gave a melting point of 168 to 172 °C. The “reduction in affinity at the δ site compared to 2c” value at opioid δ receptor (N-allyl vs N-CPM) is recorded as 4 fold. Besides, at opioid δ receptor, the Ki worked out at 8.2 ± 0.07 nM.
As for `C=CCN1C[C@H](C)N([C@H](c2ccc(C(=O)N(CC)CC)cc2)c2cccc(OC)c2)C[C@H]1C` [SNC80, reference compound], the EC50 (as a rule, the concentration that produces a half-maximal response) at δ receptor amounted to 758 ± 131 nM. The maximal effect (Emax) at δ receptor (read-out: agonist activity Emax % δ) is 100%.
`CN1CC[C@]23c4c5ccc(O)c4O[C@H]2c2ncccc2C[C@@]3(O)[C@H]1C5` [7b, 6,7-Didehydro-3,14-dihydroxy-4,5α-epoxy-17-methylpyrido[2′,3′:6,7]morphinan] registered a melting point greater than 230 °C. Also, on opioid κ receptor, the “selectivity ratio κ/δ” value is listed as 15 and the Ki was found to be 264 ± 18 nM. The Ki on opioid δ receptor turned out to be 18 ± 1.4 nM. The molecule further gave an A50 in the data set with mice (icv, mouse tail-flick) of 67.1 nmol. Further, the naloxone sensitivity entry in the data set on mice is on record as “yes”. For the same molecule, on δ receptor, the Ki is greater than 1000 nM. For the same molecule, on μ receptor [1], the Ki is greater than 1000 nM. Besides, at opioid μ receptor, the “selectivity ratio μ/δ” value is recorded as 0.4 and the Ki was determined as 7.9 ± 0.23 nM. In addition, on μ receptor [2], the maximal effect (Emax) is 40 ± 2%.
Regarding `COc1ccc2c3c1O[C@H]1c4ncc(-c5ccc(Cl)cc5)cc4C[C@@]4(O)[C@@H](C2)N(C)CC[C@]314` [7o, 5′-(4-chlorophenyl)-6,7-didehydro-4,5α-epoxy-14-hydroxy-3-methoxy-17-methyl-pyrido[2′,3′:6,7]morphinan], the melting point was in the range of 112 to 114 °C. Further, at opioid δ receptor, the Ki was 21 ± 2 nM.
For `COc1ccc2c3c1O[C@H]1c4ncccc4C[C@@]4(O)[C@@H](C2)N(C)CC[C@]314` [7m, 6,7-Didehydro-4,5α-epoxy-14-hydroxy-3-methoxy-17-methylpyrido[2′,3′:6,7]morphinan], in that order: 210 to 212 °C and 143 ± 9 nM.
`CN1CC[C@]23c4c5ccc(O)c4O[C@H]2c2ncccc2C[C@H]3[C@H]1C5` [7f, 6,7-Didehydro-4,5α-epoxy-3-hydroxy-17-methylpyrido[2′,3′:6,7]morphinan] had a melting point of 164 to 166 °C. At opioid κ receptor, the “selectivity ratio κ/δ” value is recorded as 8 and the Ki came to 66 ± 2 nM. The Ki on opioid δ receptor came to 8 ± 0.8 nM. Also, in the data set with mice (icv, mouse tail-flick), the “% nociception @ 100 nmol” value was determined as 75% @100 nmol and the “factor that prevented determining the A50 value” was “insensitivity to naloxone”. Further, in the data set with mice, the naloxone sensitivity result is recorded as “no”. At δ receptor, the Ki worked out at 595 ± 48 nM. In addition, on μ receptor [1], the half-maximal effective concentration (EC50) was determined as 502 ± 76 nM and the Ki is greater than 1000 nM. Besides, at opioid μ receptor, the “selectivity ratio μ/δ” value was determined as 2.0 and the Ki turned out to be 13 ± 0.5 nM. Further, the Emax on μ receptor [2] amounted to 44 ± 1%. In [3], the 50% inhibitory concentration (IC50) was 152 ± 25.5 nM. For the same molecule, in data set [3] (naloxone and ICI-174,864), the “blockade of agonist activity in the MVD by antagonists” value was “blocked by the nonselective antagonist naloxone but not by the δ selective antagonist ICI-174,864”.
As for `COc1ccc2c3c1O[C@H]1c4ncc(-c5ccc(Cl)cc5)cc4C[C@H]4[C@@H](C2)N(CC2CC2)CC[C@]314` [7q, 5′-(4-chlorophenyl)-17-(cyclopropylmethyl)-6,7-didehydro-4,5α-epoxy-3-methoxypyrido[2′,3′:6,7]morphinan], the melting point lay within 196 to 198 °C. Besides, at opioid δ receptor, the Ki amounted to 41 ± 3 nM.
Molecule `Oc1ccc2c3c1O[C@H]1c4ncc(-c5ccc(Cl)cc5)cc4C[C@H]4[C@@H](C2)N(CC2CC2)CC[C@]314` [7l, 5′-(4-Chlorophenyl)-17-(cyclopropylmethyl)-6,7-didehydro-4,5α-epoxy-3-hydroxypyrido[2′,3′:6,7]morphinan] came in with a melting point of 178 to 180 °C. On opioid κ receptor, the “selectivity ratio κ/δ” value is 2.3 and the Ki is 6 ± 0.3 nM. The Ki at opioid δ receptor came out at 2.6 ± 0.12 nM. In the data set on mice (icv, 300 nmol, mouse tail-flick), the “% nociception @ 300 nmol” value was found to be 18% @ 300 nmol. In the data set with mice (icv, mouse tail-flick), the “factor that prevented determining the A50 value” is listed as “lack of efficacy”. The Ki at κ receptor is 11.2 ± 0.62 nM. Further, the Ki on δ receptor came out at 1.56 ± 0.14 nM. In addition, on opioid μ receptor, the “selectivity ratio μ/δ” value is given as 24 and the Ki worked out at 62 ± 3 nM. This molecule also came in with a Kb in [4] of 6 ± 1.33 nM.
In the case of `C[C@@H](NC(=O)[C@@H](N)Cc1ccc(O)cc1)C(=O)NCC(=O)N(C)[C@@H](Cc1ccccc1)C(=O)NCCO` [DAMGO, reference compound], the EC50 at μ receptor [1] was determined as 414 nM. For the same molecule, on μ receptor [2], the Emax was determined as 100%.

Source of the values: patent publication US7541364B2, “Pyridomorphinans, pyridazinomorphinans and use thereof” (priority 2003, dated 2009).
